Measured values reported in US20080031893A1 (Metaproteomics, LLC, priority 2006, published 2008).
Marks after values point to notes of the source that are not given here.

Legend:
3T3-L1 adipocytes [1] = assay: Adiponectin secretion from insulin-resistant 3T3-L1 adipocytes; assay type: cell-based, murine
Method: 3T3-L1 cells were seeded at an initial density of 1×10^4 cells/cm^2 in 96-well plates. For two days, the cells were allowed grow to reach confluence. Following confluence, the cells were forced to differentiate into adipocytes by the addition of differentiation medium; this medium consisted of (1) 10% FBS/DMEM (high glucose); (2) 0.5 mM methylisobutylxanthine; (3) 0.5 μM dexamethasone and (4) 10 μg/ml insulin (MDI medium). From Day 3 through Day 5, the medium was changed to post-differentiation medium consisting of 10 μg/ml insulin in 10% FBS/DMEM.
Briefly, on Day 6, cells were maintained in serum-free media containing 0.5% bovine serum albumin (BSA) for three hours and then treated with 1 μg insulin/ml plus solvent or insulin plus test material. […] Twenty-four hours later, the supernatant medium was sampled for adiponectin determination.
Adiponectin Assay—The adiponectin secreted into the medium was quantified using the Mouse Adiponectin Quantikine® Immunoassay kit with no modifications (R&D Systems, Minneapolis, Minn.).
Statistical Calculations and Interpretation—All assays were preformed in duplicate. […] Differences between the doses were determined using the student's t-test without correction for multiple comparisons; the nominal five percent probability of a type I error was selected. […]

3T3-L1 adipocytes [2] = assay: Lipogenesis in 3T3-L1 adipocytes (Oil Red O / BODIPY); assay type: cell-based, murine; conditions: for adipogenic response of hops compounds: 10, 5, 4 or 2 μg/ml, spent hops 50 μg/ml
Method: Prior to experiments, cells were cultured in DMEM containing 10% FBS-HI added 50 units penicillin/ml and 50 μg streptomycin/ml, and maintained in log phase prior to experimental setup. Cells were grown in a 5% CO2 humidified incubator at 37° C. Components of the pre-confluent medium included (1) 10% FBS/DMEM containing 4.5 g glucose/L; (2) 50 U/ml penicillin; and (3) 50 μg/ml streptomycin. Growth medium was made by adding 50 ml of heat inactivated FBS and 5 ml of penicillin/streptomycin to 500 ml DMEM. This medium was stored at 4° C. Before use, the medium was warmed to 37° C. in a water bath.
3T3-T1 cells were seeded at an initial density of 6×10^4 cells/cm^2 in 24-well plates. For two days, the cells were allowed grow to reach confluence. Following confluence, the cells were forced to differentiate into adipocytes by the addition of differentiation medium; this medium consisted of (1) 10% FBS/DMEM (high glucose); (2) 0.5 mM methylisobutylxanthine; (3) 0.5 μM dexamethasone and (4) 10 μg/ml insulin (MDI medium). After three days, the medium was changed to post-differentiation medium consisting of 10 μg/ml insulin in 10% FBS/DMEM.
AcE was partially dissolved in dimethyl sulfoxide (DMSO) and added to the culture medium to achieve a concentration of 50 μg/ml at Day 0 of differentiation and throughout the maturation phase (Days 6 or 7 (D6/7)). Whenever fresh media were added, fresh test material was also added. DMSO was chosen for its polarity and the fact that it is miscible with the aqueous cell culture media.
Oil Red O Staining—Triglyceride content of D6/D7-differentiated 3T3-L1 cells was estimated with Oil Red O according to the method of Kasturi and Joshi [Kasturi, R. and Joshi, V. C. […] Monolayer cells were washed with PBS (phosphate buffered saline, Mediatech) and fixed with 10% formaldehyde for ten minutes. Fixed cells were stained with an Oil Red O working solution of three parts 0.6% Oil Red O/isopropanol stock solution and two parts water for one hour and the excess stain was washed once with water. The resulting stained oil droplets were extracted from the cells with isopropanol and quantified by spectrophotometric analysis at 540 nm (MEL312e BIO-KINETICS READER, Bio-Tek Instruments, Winooski, Vt.).
Briefly, media were removed and cells were washed once with non-sterile PBS. A stock 1000× BODIPY/DMSO solution was made by dissolving 1 mg BODIPY in 1 ml DMSO (1,000 μg BODIPY/ml). […] After 15 min on an orbital shaker (DS-500, VWR Scientific Products, South Plainfield, N.J.) at ambient temperature, the cells were washed with 100 μl PBS followed by the addition of 100 μl PBS for reading for spectrofluorometric determination of BODIPY incorporation into the cells. […]

3T3-L1 adipocytes [3] = assay: IL-6 secretion in LPS/3T3-L1 adipocytes; assay type: cell-based, murine; conditions: 100 ng LPS/ml
3T3-L1 adipocytes [4] = assay: Adiponectin secretion in LPS/3T3-L1 adipocytes; assay type: cell-based, murine; conditions: for % Stimulation (maximum) of adiponectin secretion: 0.625 μg/ml; for adiponectin secretion: LPS, any dose tested
3T3-L1 adipocytes [5] = assay: Adiponectin secretion from TNFα-treated 3T3-L1 adipocytes; assay type: cell-based, murine
Method: For two days, the cells were allowed grow to reach confluence. […] (3) 0.5 μM dexamethasone and (4) 10 μg/ml insulin (MDI medium). […] Adiponectin Assay—The adiponectin secreted into the medium was quantified using the Mouse Adiponectin Quantikine® Immunoassay kit with no modifications (R&D Systems, Minneapolis, Minn.). […] Statistical Calculations and Interpretation—All assays were preformed in duplicate. […] Differences among the doses and test agents were determined using the Student's t-test without correction for multiple comparisons; the nominal five percent probability of a type I error was selected.

PI3K gamma = PI3K gamma (Homo sapiens, UniProt P48736); assay: KinaseProfiler Assay; assay type: biochemical; conditions: 50 μg/ml
Sequence of PI3K gamma (P48736 whole entry): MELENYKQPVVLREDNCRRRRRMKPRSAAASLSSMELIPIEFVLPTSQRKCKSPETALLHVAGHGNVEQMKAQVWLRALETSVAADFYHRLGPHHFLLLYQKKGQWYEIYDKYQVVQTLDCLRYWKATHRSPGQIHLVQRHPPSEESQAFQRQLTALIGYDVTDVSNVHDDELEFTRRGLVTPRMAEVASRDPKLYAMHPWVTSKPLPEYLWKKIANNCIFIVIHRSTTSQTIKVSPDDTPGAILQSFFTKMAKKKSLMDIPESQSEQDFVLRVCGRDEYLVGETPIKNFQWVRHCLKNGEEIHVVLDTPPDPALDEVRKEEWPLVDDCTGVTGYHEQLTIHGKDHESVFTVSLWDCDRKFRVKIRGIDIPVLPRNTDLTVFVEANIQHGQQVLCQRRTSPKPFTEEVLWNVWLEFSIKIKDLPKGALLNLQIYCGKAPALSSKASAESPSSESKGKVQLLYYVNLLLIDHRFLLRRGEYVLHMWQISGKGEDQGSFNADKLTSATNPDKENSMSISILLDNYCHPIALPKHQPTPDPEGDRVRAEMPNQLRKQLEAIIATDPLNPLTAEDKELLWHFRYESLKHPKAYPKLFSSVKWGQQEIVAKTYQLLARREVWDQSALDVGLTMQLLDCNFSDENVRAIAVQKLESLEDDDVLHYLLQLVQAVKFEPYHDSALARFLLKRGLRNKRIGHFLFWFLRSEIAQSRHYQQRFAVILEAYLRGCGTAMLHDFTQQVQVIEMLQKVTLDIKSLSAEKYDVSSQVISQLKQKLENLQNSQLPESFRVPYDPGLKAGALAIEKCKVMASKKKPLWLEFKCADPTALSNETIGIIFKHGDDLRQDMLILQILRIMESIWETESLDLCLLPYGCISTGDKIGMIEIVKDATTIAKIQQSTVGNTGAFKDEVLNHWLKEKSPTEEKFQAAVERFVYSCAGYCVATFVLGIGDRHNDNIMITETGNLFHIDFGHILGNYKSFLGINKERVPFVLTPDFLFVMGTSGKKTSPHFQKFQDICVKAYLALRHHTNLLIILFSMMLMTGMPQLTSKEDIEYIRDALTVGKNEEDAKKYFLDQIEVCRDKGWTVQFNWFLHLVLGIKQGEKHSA

NF-kBp65 = assay: Nuclear translocation of NF-kBp65 in TNFα-treated 3T3-L1 adipocytes; assay type: cell-based, murine; conditions: three or 24 hours following TNFα
Method: Cell Culture and Treatment—Following differentiation 3T3-L1 adipocytes were maintained in post-differentiation medium for an additional 40 days. […] Hops derivatives and the positive control pioglitazone were tested at concentrations of 2.5, and 5.0 μg/ml. Test materials were added 1 hour prior to and nuclear extracts were prepared three and 24 hours following treatment with TNFα.
ELISA—3T3-L1 adipocytes were maintained in growth media for 40 days following differentiation. Nuclear NF-kBp65 was determined using the TransAM™ NF-kB kit from Active Motif (Carlsbad, Calif.) was used with no modifications. Jurkat nuclear extracts provided in the kit were derived from cells cultured in medium supplemented with 50 ng/ml TPA (phorbol, 12-myristate, 13 acetate) and 0.5 μM calcium ionophore A23187 for two hours at 37° C. immediately prior to harvesting.
Protein assay—Nuclear protein was quantified using the Active Motif Fluorescent Protein Quantification Kit.
Statistical Analysis—Comparisons were performed using a one-tailed Student's t-test. The probability of a type I error was set at the nominal five percent level.

[6] = Non-fasting serum glucose and insulin in db/db diabetic mice; assay type: in vivo, mouse; conditions: three consecutive days, gavage
Method: The Model—Male, C57BLKS/J m^+/m^+Lepr^db (db/db) mice were used to assess the potential of the test materials to reduce fasting serum glucose or insulin concentrations. This strain of mice is resistant to leptin by virtue of the absence of a functioning leptin receptor.
Testing Procedure—Test substances were administered daily by gavage in 0.2% Tween-80. Serum was collected from the retroorbital sinus before the initial dose and ninety minutes after the third and final dose. Non-fasting serum glucose was determined enzymatically by the mutarotase/glucose oxidase method and serum insulin was determined by a mouse specific ELISA.
The Model—Male, C57BLKS/J m+/m+ Leprdb (db/db) mice were used to assess the potential of the test materials to reduce fasting serum glucose or insulin concentrations. This strain of mice is resistant to leptin by virtue of the absence of a functioning leptin receptor.
Testing Procedure—Test substances were administered daily by gavage in 0.2% Tween-80. Serum was collected from the retroorbital sinus before the initial dose and ninety minutes after the fifth and final dose. Non-fasting serum glucose was determined enzymatically by the mutarotase/glucose oxidase method and serum insulin was determined by a mouse specific ELISA.

3T3-L1 adipocytes [7] = assay: IL-6 secretion from TNFα-treated 3T3-L1 adipocytes; assay type: cell-based, murine; conditions: 10 ng TNFα/ml
Method: Interleukin-6 Assay—The IL-6 secreted into the medium was quantified using the Quantikine® Mouse IL-6 Immunoassay kit with no modifications (R&D Systems, Minneapolis, Minn.). […] All supernatant media samples were assayed undiluted.
Statistical Calculations and Interpretation—All assays were preformed in duplicate. […] Differences among the doses were determined using the student's t-test without correction for multiple comparisons; the nominal five percent probability of a type I error (one-tail) was selected.

[8] = tested on: A549 pulmonary epithelial cells; assay: PGE2 biosynthesis in A549 cells stimulated by mite dust allergen; assay type: cell-based, human; conditions: 10 μg/ml, mite allergen 1000 ng/ml, 18 h
Method: The filtrate was termed mite dust allergen and used to test for induction of PGE2 biosynthesis in A549 pulmonary epithelial cells.
Mite allergen was added to the culture medium to achieve a final concentration of 1000 ng/ml. Eighteen hours later, the media were sampled for PGE2 determination.

[9] = 10 ng TNFα/ml, listed as indomethacin

Molecule: CC(C)CCC1=C(O)C(C(=O)C(C)C)=C(O)C(CCC(C)C)(CCC(C)C)C1=O [hexahydrocolupulone]
- concentration for half maximal adiponectin secretion (3T3-L1 adipocytes [1]; Hofstee plot): 3.2 µg/mL
- adipogenic response of hops compounds (3T3-L1 adipocytes [2]): failed to elicit a lipogenic response greater than the solvent controls

Molecule: CC(C)Cc1ccc(C(C)C(=O)O)cc1 (stereo not shown) [ibuprofen]
- inhibition at 0.625 µg/mL (3T3-L1 adipocytes [3]; Mus musculus, 3T3-L1, 0.625 μg/ml, read-out: % Inhibition (maximum) of IL-6 secretion): 54%
- % Stimulation (maximum) of adiponectin secretion (3T3-L1 adipocytes [4]): 22%

Molecule: CC(=O)Oc1ccccc1C(=O)O [Aspirin]
- adiponectin secretion (3T3-L1 adipocytes [4]): failed to induce adiponectin secretion

Molecule: Cc1c(C)c2c(c(C)c1O)CCC(C)(COc1ccc(CC3SC(=O)NC3=O)cc1)O2 (stereo not shown) [Troglitazone]
- inhibition at 10 µg/mL (3T3-L1 adipocytes [3]; Mus musculus, 3T3-L1, 10.0 μg/ml, read-out: % Inhibition (maximum) of IL-6 secretion): 69%
- maximum increase of adiponectin secretion from TNFα solvent control (3T3-L1 adipocytes [5]; 10 ng TNFα/ml): 51%
- % Stimulation (maximum) of adiponectin secretion (3T3-L1 adipocytes [4]): 15%

Molecule: CC(C)CCC1=C(O)C(C(=O)C(C)C)=C(O)C(CCC(C)C)(CCC(C)C)C1=O [Hexahydrocolupulone (HHCL)]
- Adiponectin/IL-6 (3T3-L1 adipocytes [1]; 50.0 μg/ml, ratio of indices): 0.60#

Molecule: O=C(O)c1ccccc1O [salicylic acid]
- IL-6 Index (3T3-L1 adipocytes [3]; 50.0 μg/ml (dose providing maximum inhibition)): 0.52*
- inhibition at 50 µg/mL (3T3-L1 adipocytes [3]; Mus musculus, 3T3-L1, 50.0 μg/ml, read-out: % Inhibition (maximum) of IL-6 secretion): 48%
- adiponectin secretion (3T3-L1 adipocytes [4]): failed to induce adiponectin secretion

Molecule: COc1cc(O)c(CC=C(C)C)c(O)c1C(=O)/C=C/c1ccc(O)cc1 [xanthohumol]
- adipogenic response of hops compounds (3T3-L1 adipocytes [2]): comparable to indomethacin and troglitazone
- PI3K isoform preference (PI3K gamma): more inhibitory to PI3K-γ than to PI3K-β or PI3K-δ

Molecule: CCc1ccc(CCOc2ccc(CC3SC(=O)NC3=O)cc2)nc1 (stereo not shown) [Pioglitazone]
- IL-6 Index (3T3-L1 adipocytes [3]; 5.00 μg/ml (dose providing maximum inhibition)): 0.37*
- inhibition at 5 µg/mL (3T3-L1 adipocytes [3]; Mus musculus, 3T3-L1, 5.00 μg/ml, read-out: % Inhibition (maximum) of IL-6 secretion): 63%
- maximum increase of adiponectin secretion from TNFα solvent control (3T3-L1 adipocytes [5]; 10 ng TNFα/ml): 80%
- Adiponectin Index (maximum over four doses) (3T3-L1 adipocytes [5]; 10 ng TNFα/ml, Example 17): 1.47
- Adiponectin Index Observed (3T3-L1 adipocytes [5]; 1.0 μg/ml, indexed to TNFα control): 1.80
- nuclear NF-kBp65 (NF-kBp65): did not inhibit

Molecule: CN(C)C(=N)N=C(N)N [metformin, Metformin]
- lipogenic index (3T3-L1 adipocytes [2]; 50 μg test material/ml, observed): 0.79
- serum glucose relative to controls [6]: decreased both serum glucose and insulin concentrations

Molecule: COc1ccc2c(c1)c(CC(=O)O)c(C)n2C(=O)c1ccc(Cl)cc1 [Indomethacin, indomethacin]
- % Inhibition (maximum) of IL-6 secretion (3T3-L1 adipocytes [3]; 5.00 μg/ml): 53* %
- IL-6 secretion in the presence of TNFα (3T3-L1 adipocytes [7]): no anti-inflammatory effect
- adiponectin secretion (3T3-L1 adipocytes [5]; 0.5 ng TNFα/ml, 50 μg/ml): dose-dependant decrease in adiponectin secretion
- Concentration of maximum adiponectin secretion (3T3-L1 adipocytes [5]; 10 ng TNFα/ml): 5.0 µg/mL
- Concentration of maximum adiponectin secretion (3T3-L1 adipocytes [5]; [9]): 2.5 µg/mL
- maximum increase of adiponectin secretion from TNFα solvent control (3T3-L1 adipocytes [5]; [9]): 94%
- Adiponectin/IL-6 (3T3-L1 adipocytes [5]; […], 10 ng TNFα/ml): 2.00*

Molecule: Beta acids
- adipogenic response of hops compounds (3T3-L1 adipocytes [2]): comparable to indomethacin and troglitazone
- Percent PGE2 Inhibition [8]: 83%
